In patent US10543212B2, “Substituted amines for treating cardiac diseases” (Cardurion Pharmaceuticals, LLC, priority 2017, dated 2020) one finds inhibition data, which are given here for 24 compounds.

The assay deals with T1, Human full-length CaMKIIδ (Homo sapiens, UniProt Q13557).
T1 construct: Human full-length CaMKIIδ (Cat #02-111) was obtained from Carna Biosciences; GST; purchased Carna Biosciences 02-111
In words: Human CaMKII enzyme inhibition assay (radiometric kinase assay). In kind it is biochemical. The note with it: 3 μM compound; 500 nM ATP; 0.5 nM CaMKIIδ; read-out: CaMKIIδ inhibitory activity (%) at 3 μM. As to the method:
In Vitro CaMKIIδ Inhibitory Activity was Evaluated by an Enzyme Assay.
Human CaMKII Enzyme Inhibition Assay
Kinase assay for CaMKIIs was performed using the radiometric assay. Human full-length CaMKIIδ (Cat #02-111) was obtained from Carna Biosciences (Kobe, Japan).
Enzyme reactions were performed in 25 mM HEPES, pH 7.5, with 5 mM magnesium chloride, 1 mM calcium chloride, 10 μg/mL Calmodulin, 2 mM DTT, 0.01% Tween20 and 500 nM ATP (0.2 μCi/well of [γ-33P] ATP) containing 0.5 nM CaMKIIδ and 0.1 μM autophosphorylation peptide (KKALRRQETVDAL)(Toray Research Center).
After incubating the enzyme, peptide, and compounds for 5 min, kinase reactions were initiated by adding ATP, followed by incubation for 60 min at room temperature in a total volume of 50 μL. The reactions were terminated by the addition of 10% trichloroacetic acid (final concentration). The [γ-33P]-phosphorylated proteins were filtered in a Harvest Plate (Merck Millipore) with a Cell Harvester (PerkinElmer) and then free [γ-33P] ATP was washed out with 3% phosphoric acid. The plates were dried, followed by the addition of 40 μl of MicroScintO (PerkinElmer). The radioactivity was counted by a TopCount scintillation counter (PerkinElmer). The signals of the reaction without enzyme were defined as 100% inhibitory activity and those of the reaction without inhibitors as 0% inhibitory activity. In vitro CaMKIIδ inhibitory activity was evaluated by % inhibitory activity of 3 μM compound concentration.
With `COc1cc(C2CCN(CCO)CC2)ccc1Nc1ncc(-c2ccc(C#N)c(O[C@@H](C)Cn3cnnn3)c2)cn1` [Example 160, 4-(2-((4-(1-(2-hydroxyethyl)piperidin-4-yl)-2-methoxy-phenyl)amino)pyrimidin-5-yl)-2-(((2S)-1-(1H-tetrazol-1-yl)propan-2-yl)oxy)benzonitrile], the inhibition at 3 µM came out at 99%.
As for `COc1cc(C(=O)N2CC3(CN(C)C3)C2)ccc1Nc1ncc(-c2ccc(C#N)c(O[C@@H](C)Cn3cnnn3)c2)cn1` [Example 172, 4-(2-((2-methoxy-4-((6-methyl-2,6-diazaspiro[3.3]hept-2-yl)carbonyl)phenyl)ami-no)pyrimidin-5-yl)-2-(((2S)-1-(1H-tetrazol-1-yl)propan-2-yl)oxy)benzonitrile], the inhibition at 3 µM was determined as 100%.
For `COc1cc(N2CCN(C3COC3)CC2)ccc1Nc1ncc(-c2ccc(C#N)c(O[C@@H](C)Cn3cnnn3)c2)cn1` [Example 192, 4-(2-((2-methoxy-4-(4-(oxetan-3-yl)piperazin-1-yl)phenyl)ami-no)pyrimidin-5-yl)-2-(((2S)-1-(1H-tetrazol-1-yl)propan-2-yl)oxy)benzonitrile] the value was 99%.
Then `COc1cc(N2CCN(C3COC3)CC2)ccc1Nc1ncc(-c2ccc(Cl)c(O[C@@H](C)Cn3cnnn3)c2)cn1` [Example 197, 5-(4-chloro-3-(((2S)-1-(1H-tetrazol-1-yl)propan-2-yl)oxy)phenyl)-N-(2-methoxy-4-(4-(oxetan-3-yl)piperazin-1-yl)phenyl)pyrimidin-2-amine], with 97%.
For `COc1ccc(N2CCC(N3CCOCC3)CC2)cc1Nc1ncc(-c2ccc(C#N)c(O[C@@H](C)Cn3cnnn3)c2)cn1` [Example 202, 4-(2-((2-methoxy-5-(4-(morpholin-4-yl)piperidin-1-yl)phenyl)amino)pyrimidin-5-yl)-2-(((2S)-1-(1H-tetrazol-1-yl)propan-2-yl)oxy)benzonitrile] the value was 99%; for `COc1cc(N2CCC(N3CCOCC3)CC2)c(F)cc1Nc1ncc(-c2ccc(Cl)c(O[C@@H](C)Cn3cnnn3)c2)cn1` [Example 205, 5-(4-chloro-3-(((2S)-1-(1H-tetrazol-1-yl)propan-2-yl)oxy)phenyl)-N-(5-fluoro-2-methoxy-4-(4-(morpholin-4-yl)piperidin-1-yl)phenyl)pyrimidin-2-amine], 99%; for `COc1cc(C2CCN(C3COC3)CC2)ccc1Nc1ncc(-c2ccc(Cl)c(O[C@@H](C)Cn3cnnn3)c2)cn1` [Example 206, 5-(4-chloro-3-(((2S)-1-(1H-tetrazol-1-yl)propan-2-yl)oxy)phenyl)-N-(2-methoxy-4-(1-(oxetan-3-yl)piperidin-4-yl)phenyl)pyrimidin-2-amine], 99%.
For the compound `COc1cc(N2CCC(N3C4CCC3COC4)CC2)ccc1Nc1ncc(-c2ccc(Cl)c(O[C@@H](C)Cn3cnnn3)c2)cn1` [Example 210, 5-(4-chloro-3-(((2S)-1-(1H-tetrazol-1-yl)propan-2-yl)oxy)phenyl)-N-(2-methoxy-4-(4-(3-oxa-8-azabicyclo[3.2.1]oct-8-yl)piperidin-1-yl)phenyl)pyrimidin-2-amine], the inhibition at 3 µM amounted to 100%.
For `COc1cc(N2CCN(C3COC3)CC2)c(F)cc1Nc1ncc(-c2ccc(Cl)c(O[C@@H](C)Cn3cnnn3)c2)cn1` [Example 211, 5-(4-chloro-3-(((2S)-1-(1H-tetrazol-1-yl)propan-2-yl)oxy)phenyl)-N-(5-fluoro-2-methoxy-4-(4-(oxetan-3-yl)piperazin-1-yl)phenyl)pyrimidin-2-amine] the value was 98%; for `COc1nc(N2CCC(N3CCOCC3)CC2)ccc1Nc1ncc(-c2ccc(Cl)c(O[C@@H](C)Cn3cnnn3)c2)cn1` [Example 212, 5-(4-chloro-3-(((2S)-1-(1H-tetrazol-1-yl)propan-2-yl)oxy)phenyl)-N-(2-methoxy-6-(4-(morpholin-4-yl)piperidin-1-yl)pyridin-3-yl)pyrimidin-2-amine], 99%; for `COc1cc(N2CCC(N3C[C@H]4CC[C@@H](C3)O4)CC2)ccc1Nc1ncc(-c2ccc(Cl)c(O[C@@H](C)Cn3cnnn3)c2)cn1` [Example 213, 5-(4-chloro-3-(((2S)-1-(1H-tetrazol-1-yl)propan-2-yl)oxy)phenyl)-N-(2-methoxy-4-(4-((1R,5S)-8-oxa-3-azabicyclo[3.2.1]oct-3-yl)piperidin-1-yl)phenyl)pyrimidin-2-amine], 100%.
For `COc1ccc(N2CCC(N3CCOCC3)CC2)cc1Nc1ncc(-c2ccc(Cl)c(O[C@@H](C)Cn3cnnn3)c2)cn1` [Example 214, 5-(4-chloro-3-(((2S)-1-(1H-tetrazol-1-yl)propan-2-yl)oxy)phenyl)-N-(2-methoxy-5-(4-(morpholin-4-yl)piperidin-1-yl)phenyl)pyrimidin-2-amine] the value was 100%; for `Cc1nn(C)cc1Nc1ncc(-c2ccc(C#N)c(O[C@@H](C)Cn3cncn3)c2)cn1` [Example 357, 4-(2-((1,3-dimethyl-1H-pyrazol-4-yl)amino)pyrimidin-5-yl)-2-(((2S)-1-(1H-1,2,4-triazol-1-yl)propan-2-yl)oxy)benzonitrile], 96%; for `Cc1nn(C(C)C)cc1Nc1ncc(-c2ccc(C#N)c(O[C@@H](C)Cn3cncn3)c2)cn1` [Example 358, 4-(2-((1-isopropyl-3-methyl-1H-pyrazol-4-yl)amino)pyrimidin-5-yl)-2-(((2S)-1-(1H-1,2,4-triazol-1-yl)propan-2-yl)oxy)benzonitrile], 93%.
Take `C[C@@H](Cn1cncn1)Oc1cc(-c2cnc(Nc3cnn(C4CC4)c3)nc2)ccc1C#N` [Example 361, 4-(2-((1-cyclopropyl-1H-pyrazol-4-yl)amino)pyrimidin-5-yl)-2-(((2S)-1-(1H-1,2,4-triazol-1-yl)propan-2-yl)oxy)benzonitrile]: the inhibition at 3 µM came out at 98%.
For `C[C@@H](Cn1cncn1)Oc1cc(-c2cnc(Nc3cnn(CC(F)(F)F)c3)nc2)ccc1C#N` [Example 362, 2-(((2S)-1-(1H-1,2,4-triazol-1-yl)propan-2-yl)oxy)-4-(2-((1-(2,2,2-trifluoroethyl)-1H-pyrazol-4-yl)amino)pyrimidin-5-yl)benzonitrile] the value was 97%.
For `C[C@@H](Cn1cncn1)Oc1cc(-c2cnc(Nc3cnn(CC(C)(C)C#N)c3)nc2)ccc1C#N` [Example 365, 4-(2-((1-(2-cyano-2-methylpropyl)-1H-pyrazol-4-yl)amino)pyrimidin-5-yl)-2-(((2S)-1-(1H-1,2,4-triazol-1-yl)propan-2-yl)oxy)benzonitrile] the value was 98%.
Then `CC(C)n1cc(Nc2ncc(-c3ccc(C#N)c(O[C@@H](C)Cn4ncnn4)c3)cn2)cn1` [Example 371, 4-(2-((1-isopropyl-1H-pyrazol-4-yl)amino)pyrimidin-5-yl)-2-(((2S)-1-(2H-tetrazol-2-yl)propan-2-yl)oxy)benzonitrile], with 94%.
Turning to `Cc1nn(C)cc1Nc1ncc(-c2ccc(C#N)c(O[C@@H](C)Cn3cnnn3)c2)cn1` [Example 372, 4-(2-((1,3-dimethyl-1H-pyrazol-4-yl)amino)pyrimidin-5-yl)-2-(((2S)-1-(1H-tetrazol-1-yl)propan-2-yl)oxy)benzonitrile], the inhibition at 3 µM was 98%.
For `C[C@@H](Cn1cncn1)Oc1cc(-c2cnc(Nc3cnn(C(C)(C)C)c3)nc2)ccc1C#N` [Example 373, 4-(2-((1-tert-butyl-1H-pyrazol-4-yl)amino)pyrimidin-5-yl)-2-(((2S)-1-(1H-1,2,4-triazol-1-yl)propan-2-yl)oxy)benzonitrile], the inhibition at 3 µM was found to be 98%.
For `CC(C)n1cc(Nc2ncc(-c3ccc(C#N)c(O[C@@H](C)Cn4cnnn4)c3)cn2)cn1` [Example 374, 4-(2-((1-isopropyl-1H-pyrazol-4-yl)amino)pyrimidin-5-yl)-2-(((2S)-1-(1H-tetrazol-1-yl)propan-2-yl)oxy)benzonitrile], the inhibition at 3 µM was 97%.
Then `COc1nn(C)cc1Nc1ncc(-c2ccc(C#N)c(O[C@@H](C)Cn3cncn3)c2)cn1` [Example 375, 4-(2-((3-methoxy-1-methyl-1H-pyrazol-4-yl)amino)pyrimidin-5-yl)-2-(((2S)-1-(1H-1,2,4-triazol-1-yl)propan-2-yl)oxy)benzonitrile], with 97%; and `C[C@@H](Cn1cncn1)Oc1cc(-c2cnc(Nc3cn(C)nc3C(F)(F)F)nc2)ccc1C#N` [Example 376, 4-(2-((1-methyl-3-(trifluoromethyl)-1H-pyrazol-4-yl)amino)pyrimidin-5-yl)-2-(((2S)-1-(1H-1,2,4-triazol-1-yl)propan-2-yl)oxy)benzonitrile], with 97%.
Then `C[C@@H](Cn1cncn1)Oc1cc(-c2cnc(Nc3cn[nH]c3)nc2)ccc1C#N` [Example 379, 4-(2-(1H-pyrazol-4-ylamino)pyrimidin-5-yl)-2-(((2S)-1-(1H-1,2,4-triazol-1-yl)propan-2-yl)oxy)benzonitrile], with 98%.
